Reference: patent publication US20250361219A1, “SYSTEMS AND METHODS FOR SEPARATION OF CHEMICAL SPECIES, SUCH AS CANNABINOIDS, USING MULTIPLE LIQUID PHASES” (priority 2022, published 2025)
Read-outs that look alike come from different tables or passages of the source.

How the values were obtained:
[1] = Batch extraction of rac-propranolol with dibutyl L-(+)-tartrate / boric acid, dichloromethane/water; type: physicochemical; details: for distribution coefficient: dichloromethane with dibutyl-L-tartrate / water with boric acid
Method: One mobile phase was used—a 54/46 v/v methanol/water solution containing 110 mM sodium acetate adjusted to a pH of 6 using glacial acetic acid, 215 mM boric acid, and 285 mM dibutyl L-(+)-tartrate. The flow rate was 0.23 mL/min. The column was heated to 25° C. and the detection was monitored at a wavelength of 275 nm. Samples were diluted 20× in 54/46 v/v methanol/water solution containing 110 mM sodium acetate buffered to a pH of 6 with glacial acetic acid and the injection volume was 10 μL.
Batch extraction experiments were performed as follows. 2 mL of 1 mg/mL rac-Propranolol in water containing 152.1 mM boric acid was mixed with 2 mL of 152.1 mM dibutyl L-(+)-tartrate in dichloromethane. The solution was vigorously shaken for approximately 2 minutes and allowed to fully settle. 20 μL of each phase were diluted with 380 μL of 110 mM sodium acetate in a 54/46 methanol/water solution buffered to a pH of 6 using glacial acetic acid and the solute concentrations were determined by HPLC.

[2] = 1,2-Dichloroethane/water (literature), 45x molar excess dibutyl-L-tartrate and boric acid; listed as R/S-PRP; cited from earlier work
[3] = Current platform (10/5/5 DCM/methanol/water ratio)
Method: Batch extraction experiments were performed as follows. 1 mg of each solute was added to 2 mL of dichloromethane, 1 mL of water, and 1 mL of methanol. The solution was vigorously shaken for around 2 minutes and allowed to fully settle. 100 μL of each phase were diluted with 900 μL of methanol and the solute concentrations were determined by HPLC.

[4] = Literature (10/6/4 DCM/methanol/water ratio); cited from earlier work
[5] = Partition coefficients of delta-9- and delta-8-tetrahydrocannabinol in liquid mixtures (Examples 1-9); type: physicochemical
Method: The cannabinoid sample contained both delta-9-tetrahydrocannabinol with delta-8-tetrahydrocannabinol. The liquid mixtures included an organic phase as the first liquid phase and a water soluble phase as the second liquid phase. The organic phase and the water soluble phase were in 1:1 volume ratio for all analyses. Various hydrocarbons were evaluated as the organic phase. These hydrocarbons included hexane, heptane, cyclohexane, pentane, 1-hexene, toluene, benzene, 1-octadecene, and dodecane. Various amide based solvents were evaluated as the water soluble phase. These amide based solvents included formamide (F), dimethyl formamide (DMF), methyl formamide (MF), dibutyl formamide (DBF).
Example 9. A mixture of formamide (F) and dimethyl formamide (DMF) and dibutyl formamide (DBF) at a volume ratio of 1:3:1 (20% F and 60% DMF and 20% DBF) was used as the water soluble phase. Hexane was used as the organic phase. […] The partition coefficients for each component (e.g., delta-9-tetrahydrocannabinol, delta-8-tetrahydrocannabinol) in the liquid mixture were determined by calculating a ratio of the concentration of the component in the water soluble phase over concentration of the component in the organic phase.

With `CC(C)NC[C@@H](O)COc1cccc2ccccc12` [R-PRP, R-propranolol] the distribution coefficient [1] was 0.12.
In the case of `CC(C)NCC(O)COc1cccc2ccccc12` (centres unmarked) [R/S-propranolol], the Selectivity between enantiomers [2] is given as 2.54±0.13 and the Selectivity between enantiomers ([1]; Dichloromethane/water (experiment), 45x molar excess dibutyl-L-tartrate and boric acid) is given as 2.58 ± 0.07.
In the case of `CC(C)NCC(O)COc1cccc2ccccc12` (centres unmarked) [S-PRP], the distribution coefficient [1] is reported as 0.30.
For `COc1cc(C=O)cc(OC)c1O` [Syringaldehyde, syringaldehyde], the “αx/pHBA (selectivity)” value [3] is listed as 25.5 and the “αx/pHBA (selectivity)” value [4] is listed as 17.8.
In the case of `CCCCCc1cc(O)c2c(c1)OC(C)(C)[C@@H]1CCC(C)=C[C@@H]21` [delta-9-tetrahydrocannabinol], the “Kd9,THC/Kd8,THC” value ([5]; Example 1: F:DMF (9:16) / Hexane) is reported as 1.47, the “Kd9,THC/Kd8,THC” value ([5]; Example 2: F:DMF (9:16) / Heptane) is reported as 1.45 and the “Kd9,THC/Kd8,THC” value ([5]; Example 3: F:DMF (9:16) / Cyclohexane) is reported as 1.48. For the same compound, the “Kd9,THC/Kd8,THC” value ([5]; Example 4: F:DMF (9:16) / Pentane) was 1.36, the “Kd9,THC/Kd8,THC” value ([5]; Example 5: F:DMF (9:16) / 1-Hexene) was 1.37 and the “Kd9,THC/Kd8,THC” value ([5]; Example 6: F:DMF (1:1) / Dodecane) was 1.39. For the same compound, the “Kd9,THC/Kd8,THC” value ([5]; Example 7: F:MF (1:1) / Hexane) was 1.20, the “Kd9,THC/Kd8,THC” value ([5]; Example 8: F:MF (2:3) / Hexane) was 1.23 and the “Kd9,THC/Kd8,THC” value ([5]; Example 9: F:DMF:DBF (1:3:1) / Hexane) was 1.39.
In the case of `O=C(O)c1ccc(O)cc1` [pHBA, para-hydroxybenzoic acid], the “αx/pHBA (selectivity)” value [3] is listed as 1.00 and the “αx/pHBA (selectivity)” value [4] is listed as 1.00.
